In patent publication US20220400679A1, “COMPOSITION FOR ENHANCING PLANT GROWTH” (CH Biotech R&D Co., Ltd., priority 2021, published 2022):

How the values were obtained:
[1] = test system: Glyphosate-tolerant corn plants (D40SS48); assay: Example 3 content of plant hormones, corn; assay type: in vivo; settings: with glyphosate treatment (4.87 g/L), 12 days after application, N = 3
Procedure: (§1) One seed was seeded in one pot.
(§2) 2.8 Content of Plant Hormones: Twelve (12) days after the application of reagents, 1 g of fresh sample leaf was ground in liquid nitrogen and then mixed with 10 g extraction solution (80% (v/v) methanol, 1% (v/v) acetic acid) by a vortex mixer. The sample was then sonicated for 1 hour and centrifuged at 2,500 rpm for 10 minutes. The supernatant was collected, concentrated, dissolved in 1 ml of 100% methanol, and then analyzed for content of plant hormones with a tandem quadrupole mass spectrometer (Waters® Xevo® TQ MS, Waters Corporation, Milford, Mass., USA) and ACQUITY UPLC System (Waters Corporation, Milford, Mass., USA).

[2] = test system: Glyphosate-tolerant soybean plants (S29RY05); assay: Example 3 content of TBARS, soybean; settings: 3 days after application, glyphosate vs Control group, FIG. 14
[3] = test system: nitrate reductase (NR) of soybean plants; assay: Example 3 activity of nitrate reductase, soybean; assay type: in vivo; settings: 3 days after application, glyphosate vs Control group, FIG. 15
Procedure: as §1
(§3) One (1) ml of potassium phosphate buffer (100 mM, pH7.4) containing 7.5 mM cysteine, 1 mM EDTA, and 1.5% casein was added to the sample, mixed with the sample, and then the mixed sample was centrifuged at 4° C., 13,000 relative centrifugal field (rcf) for 30 minutes. […] The sample was centrifuged at room temperature, 3,000 rcf. The supernatant was transferred to a new tube and mixed with 0.5 mL sulphanilamide (5.8 mM) and 0.5 mL N-(1-naphthyl)ethylenediamine (0.8 mM). The mixture was incubated for 30 minutes. […] KNO2 is used as a NO2^− concentration standard.

[4] = test system: nitrate reductase (NR) of corn plants; assay: Example 3 activity of nitrate reductase, corn; assay type: in vivo; settings: 3 days after application, glyphosate vs Control group, FIG. 8
Procedure: as §1, §3

[5] = test system: Glyphosate-tolerant corn plants (D40SS48); assay: Example 3 analyses of leaves and roots (growth) after glyphosate treatment, corn; assay type: in vivo; settings: 7 days after application, glyphosate 4.87 g/L, N = 10
Procedure: as §1
(§4) 2.1 Analyses of Leaves: Seven (7) days after the application of reagents, plant height was measured, and leaves were collected. The leaf area of the fourth leaf of each corn plant and the total leaf area of each soybean plant were measured by a leaf analyzer (WinFOLIA™ Regent Instruments Inc., Québec, Canada). Leaves and stems of each plant were dried at 50° C. overnight, and then the dry weight was measured.
(§5) 2.2 Analyses of Roots: Seven (7) days after the application of reagents, length of plant root was measured by a root analyzer (WinRHIZO™, Regent Instruments Inc., Québec, Canada). In addition, roots of each plant were dried at 50° C. overnight, and then the dry weight was measured.

[6] = test system: glutamate synthase (GOGAT) of corn plants; assay: Example 3 activity of glutamate synthase, corn; assay type: in vivo; settings: 3 days after application, glyphosate vs Control group, FIG. 10
Procedure: as §1
(§6) The leaf powder and 1 ml of extraction solution, containing 10 mM Tris-HCl (pH7.6), 1 mM MgCl2, 1 mM EDTA, and 10 mM 2-Mercaptoethanol, were centrifuged at 4° C., 13,000 rcf for 30 minutes. Zero-point-one-five (0.15) ml of the supernatant was mixed with the reaction solution containing 0.2 mL of 20 mM L-glutamine, 0.25 mL of 2 mM 2-oxoglutarate, 0.05 mL of 10 mM KCl, 1 mL of 25 mM Tris-HCl (pH7.6), and 0.1 mL 3 mM NADH to initiate the reaction. The GOGAT activity is determined by NADH reduction through measuring fluorescence intensity at excitation/emission wavelengths of 340/445 nm. NADH concentration is determined by reference to a NADH standard curve.

[7] = test system: Glyphosate-tolerant corn plants (D40SS48); assay: Example 3 electrolyte leakage, corn; assay type: in vivo; settings: 3 days after application, glyphosate vs Control group, FIG. 6
Procedure: as §1
(§7) Six (6) leaf disks (7.5 mm diameter) were cut from the sample leaves and immersed in 10 ml of deionized water at 25° C. for 24 hours. After that, the first electrolytic conductivity (EC1) of the sample solution was analyzed with an electrical conductivity meter (SevenCompact™ 5230 Conductivity Meter, Mettler-Toledo, Columbus, Ohio, USA). The sample leaf disks were then kept in the deionized water at 95° C. for 2 hours. After the temperature of the sample solution decreased to 25° C., the second electrolytic conductivity (EC2) of the sample solution was analyzed with the electrical conductivity meter again. Ten (10) milliliters of deionized water without any sample were used as control. Electrolyte leakage of the sample leaves was analyzed with the following equation.
(§8) Electrolyte leakage (%)=(Sample EC1−Control EC1)×100/(Sample EC2−Control EC2)

[8] = test system: Glyphosate-tolerant soybean plants (S29RY05); assay: Example 1 synergistic test with glyphosate: shoot dry weight, soybean; assay type: in vivo; settings: 7 days after application, glyphosate 4.87 g/L vs Control group (p<0.01), FIG. 2A
Procedure: as §1
(§9) 2.1 Shoot dry weight: Seven (7) days after the application of reagents, leaves and stems of each plant were dried at 50° C. overnight, and then the dry weight was measured.
(§10) 2.2 Statistics: Unpaired Student's t-test was applied to assess numerical data statistical significance. Statistical significance was set at p-value less than 0.05.

[9] = test system: Glyphosate-tolerant soybean plants (S29RY05); assay: Example 2 different concentrations of components with glyphosate: shoot dry weight, soybean; assay type: in vivo; settings: glyphosate 4.87 g/L vs Control group (p<0.01), FIG. 4A
Procedure: as §9, §1
(§11) Methods for analyzing shoot dry weight and statistics are the same as described in Example 1.

[10] = test system: glutamine synthetase (GS) of soybean plants; assay: Example 3 activity of glutamine synthetase, soybean; assay type: in vivo; settings: 3 days after application, glyphosate vs Control group, FIG. 16
Procedure: as §1
(§12) The leaf powder and 1 ml of extraction solution, containing 10 mM Tris-HCl (pH7.6), 1 mM MgCl2, 1 mM EDTA, and 10 mM 2-Mercaptoethanol, were centrifuged at 4° C., 13,000 rcf for 30 minutes. […] The sample was centrifuged at room temperature, 3,000 rcf. Absorbance at an O.D. of 540 nm (A540) of the supernatant was measured.

[11] = test system: Glyphosate-tolerant soybean plants (S29RY05); assay: Example 3 analyses of leaves and roots (growth) after glyphosate treatment, soybean; assay type: in vivo; settings: 7 days after application, glyphosate 4.87 g/L
Procedure: as §1, §4, §5

[12] = test system: glutamine synthetase (GS) of corn plants; assay: Example 3 activity of glutamine synthetase, corn; assay type: in vivo; settings: 3 days after application, glyphosate vs Control group, FIG. 9
Procedure: as §1, §12

[13] = test system: Glyphosate-tolerant corn plants (D40SS48); assay: Example 2 different concentrations of components with glyphosate: shoot dry weight, corn; assay type: in vivo; settings: glyphosate 4.87 g/L vs Control group (p<0.01), FIG. 3A
Procedure: as §9, §1, §11

[14] = test system: Glyphosate-tolerant corn plants (D40SS48); assay: Example 1 synergistic test with glyphosate: shoot dry weight, corn; assay type: in vivo; settings: 7 days after application, glyphosate 4.87 g/L vs Control group (p<0.01), FIG. 1A
Procedure: as §1, §9, §10

[15] = test system: Glyphosate-tolerant soybean plants (S29RY05); assay: Example 3 content of plant hormones, soybean; assay type: in vivo; settings: with glyphosate treatment (4.87 g/L), 12 days after application, N = 3
Procedure: as §1, §2

[16] = test system: glutamate synthase (GOGAT) of soybean plants; assay: Example 3 activity of glutamate synthase, soybean; assay type: in vivo; settings: 3 days after application, glyphosate vs Control group, FIG. 17
Procedure: as §1, §6

[17] = test system: Glyphosate-tolerant soybean plants (S29RY05); assay: Example 3 electrolyte leakage, soybean; assay type: in vivo; settings: 3 days after application, glyphosate vs Control group, FIG. 13
Procedure: as §1, §7, §8

[18] = test system: Glyphosate-tolerant corn plants (D40SS48); assay: Example 3 content of TBARS, corn; settings: 3 days after application, glyphosate vs Control group, FIG. 7

O=C(O)CNCP(=O)(O)O [Glyphosate only, glyphosate]
Phytohormone content: ABA [1]: 2742 ng/g FW | Phytohormone content: Cytokinin (Zeatin+iPAs) [1]: 0.75 ng/g FW | Phytohormone content: GA1 [1]: 625 ng/g FW | Phytohormone content: IAA [1]: 45 ng/g FW | TBARS level [2]: increase in TBARS level | activities of nitrate reductase (NR) [3]: decrease in activities | activities of nitrate reductase (NR) [4]: decrease in activities | Plant height [5]: 42.70 cm | Root dry weight [5]: 0.35 g | The 4th leaf area [5]: 89.45 cm^2 | Total root length [5]: 1405.69 cm | shoot dry weight [5]: 1.30 g | activities of glutamate synthase (GOGAT) [6]: decrease in activities | electrolyte leakage [7]: increase in electrolyte leakage | shoot dry weight [8]: significant decrease in shoot dry weight | shoot dry weight [9]: significant decrease in shoot dry weight | activities of glutamine synthetase (GS) [10]: decrease in activities | leaf curling symptoms (phenotype observation of soybean leaves) ([11]; FIG. 12): causes leaf curling symptoms | necrotic areas (phenotype observation of soybean leaves) ([11]; FIG. 12): necrotic areas | Root dry weight ([11]; N = 10): 0.28 g | Shoot fresh weight ([11]; N = 10): 2.46 g | The unifoliate leaf length ([11]; N = 10): 4.54 cm | Total leaf area ([11]; N = 10): 55.96 cm^2 | Total root length ([11]; N = 10): 2047.40 cm | activities of glutamine synthetase (GS) [12]: decrease in activities | shoot dry weight [13]: significant decrease in shoot dry weight | shoot dry weight [14]: significant decrease in shoot dry weight | Phytohormone content: ABA [15]: 1189 ng/g FW | Phytohormone content: Cytokinin (Zeatin+iPAs) [15]: 0.68 ng/g FW | Phytohormone content: GA1 [15]: 832 ng/g FW | Phytohormone content: IAA [15]: 28 ng/g FW | activities of glutamate synthase (GOGAT) [16]: decrease in activities | electrolyte leakage [17]: increase in electrolyte leakage | TBARS level [18]: increase in TBARS level
